Structures are written as SMILES. Some results are limits rather than exact numbers.

The target of one assay is T1, Recombinant human liver GK1 (GST-GK) (Homo sapiens, UniProt P35557).
T1 construct: made in house; host or cells: E. coli
T1 sequence (P35557 1-466 isoform P35557-2): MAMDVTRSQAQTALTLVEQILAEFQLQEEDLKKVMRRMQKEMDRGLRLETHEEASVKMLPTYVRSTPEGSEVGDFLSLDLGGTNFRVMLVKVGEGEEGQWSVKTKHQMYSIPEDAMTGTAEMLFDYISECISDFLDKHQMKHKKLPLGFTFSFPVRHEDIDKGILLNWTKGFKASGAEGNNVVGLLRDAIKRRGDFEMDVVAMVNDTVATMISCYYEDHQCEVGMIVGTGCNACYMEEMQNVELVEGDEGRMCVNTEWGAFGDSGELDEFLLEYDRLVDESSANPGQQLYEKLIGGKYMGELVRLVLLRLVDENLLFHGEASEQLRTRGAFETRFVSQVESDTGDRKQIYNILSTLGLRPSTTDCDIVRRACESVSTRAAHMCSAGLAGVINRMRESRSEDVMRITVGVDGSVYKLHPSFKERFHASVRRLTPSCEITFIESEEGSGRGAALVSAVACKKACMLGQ
Description: Glucokinase in vitro assay (G6PDH-coupled NADH generation, OD340). Type of assay: biochemical. The settings on record: 30 uM test compound, 5 mM D-glucose. Put shortly: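 Activation readout is SC1.5, the activator concentration raising GK rate (OD340/min) 50% above 10% DMSO controls. The coupled reaction used GST-GK1 from E. coli, 5 mM glucose, 1 mM ATP, 1.8 mM NAD and 25 mM Hepes pH 7.1 at 30° C. Enzyme was added after a 10 min compound pre-incubation.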
With `Cc1cc(NC(=O)C(CC2CCOCC2)n2ncc(Oc3c(F)cccc3F)cc2=O)nn1CC(C)O` (stereo not drawn) [Example 132, 2-[4-(2,6-Difluoro-phenoxy)-6-oxo-6H-pyridazin-1-yl]-N-[1-(2-hydroxy-propyl)-5-methyl-1H-pyrazol-3-yl]-3-(tetrahydro-pyran-4-yl)-propionamide], the “fold activation @ 30 uM” value is 1.18 fold.

As to `CC1CCCC(C)C1Oc1cnn(C(CC2CCCC2)C(=O)Nc2ccn(C[C@@H](O)CO)n2)c(=O)c1` (stereo partly drawn) [Example 91, 3-Cyclopentyl-N-[1-((R)-2,3-dihydroxy-propyl)-1H-pyrazol-3-yl]-2-[4-(2,6-dimethyl-cyclohexyloxy)-6-oxo-6H-pyridazin-1-yl]-propionamide], the “fold activation @ 30 uM” value came out at 1.28 fold.

The same assay, now with this note: 5 mM D-glucose, 30° C., pH 7.1, 10% DMSO.
In the case of `CC(C)(O)Cn1ccc(NC(=O)C(Cc2ccccc2)n2ncc(Oc3c(F)cccc3F)cc2=O)n1` (stereo not drawn) [Example 44, 2-[4-(2,6-Difluoro-phenoxy)-6-oxo-6H-pyridazin-1-yl]-N-[1-(2-hydroxy-2-methyl-propyl)-1H-pyrazol-3-yl]-3-phenyl-propionamide], the “SC1.5 average (concentration of activator that produced a 50% increase in the activity of GK)” value worked out at 1.032 µM.

In the case of `CC(C)(O)Cn1ccc(NC(=O)C(CC2CCCC2)n2ncc(Oc3cccc4ccccc34)cc2=O)n1` (stereo not drawn) [Example 20], the “SC1.5 average (concentration of activator that produced a 50% increase in the activity of GK)” value was 0.058 µM.

With `O=C(Nc1ccn(C[C@H](O)CO)n1)C(CC1CCCC1)n1ncc(Oc2c(F)cccc2F)cc1=O` (stereo partly drawn) [Example 65, 3-Cyclopentyl-2-[4-(2,6-difluoro-phenoxy)-6-oxo-6H-pyridazin-1-yl]-N-[1-((S)-2,3-dihydroxy-propyl)-1H-pyrazol-3-yl]-propionamide], the “SC1.5 average (concentration of activator that produced a 50% increase in the activity of GK)” value was 0.102 µM.

`Cc1cc(NC(=O)C(CC2CCOCC2)n2ncc(Oc3c(F)cccc3F)cc2=O)nn1CC(C)O` (stereo not drawn) [Example 132, 2-[4-(2,6-Difluoro-phenoxy)-6-oxo-6H-pyridazin-1-yl]-N-[1-(2-hydroxy-propyl)-5-methyl-1H-pyrazol-3-yl]-3-(tetrahydro-pyran-4-yl)-propionamide]: the “SC1.5 average (concentration of activator that produced a 50% increase in the activity of GK)” value is more than 30 µM.

For `Cc1ccccc1Oc1cnn([C@@H](CC2CCCC2)C(=O)Nc2ccc(C(=O)O)cn2)c(=O)c1` [Example 74A, 6-[(S)-3-Cyclopentyl-2-(6-oxo-4-o-tolyloxy-6H-pyridazin-1-yl)-propionylamino]-nicotinic acid], the “SC1.5 average (concentration of activator that produced a 50% increase in the activity of GK)” value was determined as 0.043 µM.

Take `O=C(O)c1ccc(NC(=O)[C@@H](CC2CCCC2)n2ncc(Oc3cccc4c3CCCC4)cc2=O)nc1` [Example 72B, 6-{(R)-3-Cyclopentyl-2-[6-oxo-4-(5,6,7,8-tetrahydro-naphthalen-1-yloxy)-6H-pyridazin-1-yl]-propionylamino}-nicotinic acid]: the “SC1.5 average (concentration of activator that produced a 50% increase in the activity of GK)” value worked out at 0.226 µM.

Consider `CC(C)(O)Cn1ccc(NC(=O)C(CC2CCCC2)n2ncc(Oc3ccccc3N3CCCC3)cc2=O)n1` (stereo not drawn) [Example 26, 3-Cyclopentyl-N-[1-(2-hydroxy-2-methyl-propyl)-1H-pyrazol-3-yl]-2-[6-oxo-4-(2-pyrrolidin-1-yl-phenoxy)-6H-pyridazin-1-yl]-propionamide], for which the “SC1.5 average (concentration of activator that produced a 50% increase in the activity of GK)” value was 0.196 µM.

In the case of `CC(C)CC(C(=O)Nc1ccn(CC(C)(C)O)n1)n1ncc(Oc2ccccc2Cl)cc1=O` (stereo not drawn) [Example 134, 2-[4-(2-Chloro-phenoxy)-6-oxo-6H-pyridazin-1-yl]-4-methyl-pentanoic acid [1-(2-hydroxy-2-methyl-propyl)-1H-pyrazol-3-yl]-amide], the “SC1.5 average (concentration of activator that produced a 50% increase in the activity of GK)” value came to 0.693 µM.

On to `O=C(Nc1ccn(C[C@@H](O)CO)n1)C(CC1CCCC1)n1ncc(Oc2ncccc2F)cc1=O` (stereo partly drawn) [Example 95, 3-Cyclopentyl-N-[1-((R)-2,3-dihydroxy-propyl)-1H-pyrazol-3-yl]-2-[4-(3-fluoro-pyridin-2-yloxy)-6-oxo-6H-pyridazin-1-yl]-propionamide], for which the “SC1.5 average (concentration of activator that produced a 50% increase in the activity of GK)” value came out at 12.633 µM.

As for `CC1CCCC(C)C1Oc1cnn(C(CC2CCCC2)C(=O)Nc2ccn(C[C@@H](O)CO)n2)c(=O)c1` (stereo partly drawn) [Example 91, 3-Cyclopentyl-N-[1-((R)-2,3-dihydroxy-propyl)-1H-pyrazol-3-yl]-2-[4-(2,6-dimethyl-cyclohexyloxy)-6-oxo-6H-pyridazin-1-yl]-propionamide], the “SC1.5 average (concentration of activator that produced a 50% increase in the activity of GK)” value was more than 30 µM.
